≈ marks a conversion by molar mass, not a printed value.
Tests used:
[1] = Cyclic voltammetry (reduction potential); format: physicochemical; conditions: 0.1 M THF/TBAPF6, under N2, bare Ag reference electrode, scan 60-150 mV/s
Experimental: Cyclic voltammetry experiments were conducted using an Epsilon single-channel […] and a BAS C3 cell stand (a one-compartment cell with a C disk working electrode, a bare Ag reference electrode, and a Pt wire counter electrode). Appropriate precautions were taken to eliminate water and oxygen during measurement. All measurements were performed under N2 by dissolving the compound (1-3 mg) in a 0.1 M THF/TBAPF6 solutions with scanning rates between 60-150 mV/s. When the voltammograms are (quasi)reversible, it is possible to extract formal potentials (E^1/2) as the midpoints between peak potentials for the forward and reverse scans.
Table 1 summarizes certain physical and electrical properties of some compounds of the present teachings, including Ered values obtained from the cyclic voltammetry experiments. N,N′-Bis(4-n-octyl)-1,7-dicyanoperylene-3,4:9,10-bis(dicarboximide) (PDI8-CN2), N,N′-bis[(3S)-3,7-dimethyl-6-octenyl]-1,7-dicyanoperylene-3,4:9,10-bis(dicarboximide) (PDICitr-CN2), N,N′-bis(2-ethylhexyl)-1,7-dicyanoperylene-3,4:9,10-bis(dicarboximide) (PDI2EH-CN2), and N,N′-bis(2-methylhexyl)-1,7-dicyanoperylene-3,4:9,10-bis(dicarboximide) (PDI2MH-CN2) were included as comparative representative compounds.

[2] = Solubility in organic solvents; format: physicochemical; conditions: for Solubility DCB: dichlorobenzene (DCB); for Solubility CHCl3: chloroform; for Solubility compared to similar compounds: compared to PDI8-CN2, PDI2EH-CN2, PDICitr-CN2 and PDI2MH-CN2
Experimental: As certain embodiments of the compounds disclosed herein can be soluble in common solvents, the present teachings can offer processing advantages in fabricating electrical devices such as thin film semiconductors, field-effect devices, organic light emitting diodes (OLEDs), organic photovoltaics, photodetectors, capacitors, and sensors. As used herein, a compound can be considered soluble in a solvent when at least 1 mg of the compound can be dissolved in 1 mL of the solvent. Examples of common organic solvents include petroleum ethers; acetonitrile; aromatic hydrocarbons such as benzene, toluene, xylene, and mesitylene; ketones such as acetone and methyl ethyl ketone; ethers such as tetrahydrofuran, dioxane, bis(2-methoxyethyl)ether, diethyl ether, di-isopropyl ether, and t-butyl methyl ether; alcohols such as methanol, ethanol, butanol, and isopropyl alcohol; aliphatic hydrocarbons such as hexanes; acetates such as methyl acetate, ethyl acetate, methyl formate, ethyl formate, isopropyl acetate, and butyl acetate; amides such as dimethylformamide and dimethylacetamide; sulfoxides such as dimethylsulfoxide; halogenated aliphatic and aromatic hydrocarbons such as dichloromethane, chloroform, ethylene chloride, chlorobenzene, dichlorobenzene, and trichlorobenzene; and cyclic solvents such as cyclopentanone, cyclohexanone, and 2-methypyrrolidone. Examples of common inorganic solvents include water and ionic liquids.
Greater solubilities (2-10 times) can be achieved using warm solvents.

Ered [1] [V] | Solubility DCB [2] [mg/mL] | Solubility CHCl3 [2] [mg/mL] | Solubility (DCB, 70° C.) [2] [mg/mL] | Solubility compared to similar compounds [2] | Compound
−0.41 |  |  |  |  | CCCCC(C)N1C(=O)c2ccc3c4c(Br)cc5c6c(ccc(c7c(Br)cc(c2c37)C1=O)c64)C(=O)N(C(C)CCCC)C5=O (stereo not shown) [PDI1MP-Br2, N,N′-bis(1-methylpentyl)-1,7-dibromoperylene-3,4:9,10-bis(dicarboximide)]
−0.083 | 5 (≈ 8.61 mM) |  |  |  | CCCC(C)N1C(=O)c2ccc3c4c(C#N)cc5c6c(ccc(c7c(C#N)cc(c2c37)C1=O)c64)C(=O)N(C(C)CCC)C5=O (stereo not shown) [PDI1MB-CN2, N,N′-bis(1-methylbutyl)-1,7-dicyanoperylene-3,4:9,10-bis(dicarboximide)]
−0.101 | 10 (≈ 17.2 mM) |  |  |  | CCC(CC)N1C(=O)c2ccc3c4c(C#N)cc5c6c(ccc(c7c(C#N)cc(c2c37)C1=O)c64)C(=O)N(C(CC)CC)C5=O [PDI1EPr-CN2, N,N′-bis(1-ethylpropyl)-1,7-dicyanoperylene-3,4:9,10-bis(dicarboximide)]
−0.091 | 8 (≈ 14.5 mM) |  |  |  | CCC(C)N1C(=O)c2ccc3c4c(C#N)cc5c6c(ccc(c7c(C#N)cc(c2c37)C1=O)c64)C(=O)N(C(C)CC)C5=O (stereo not shown) [PDI1MPr-CN2, N,N′-bis(1-methylpropyl)-1,7-dicyanoperylene-3,4:9,10-bis(dicarboximide)]
−0.150 | 4 (≈ 6.02 mM) | 4 (≈ 6.02 mM) |  |  | CCCCCCCCN1C(=O)c2ccc3c4c(C#N)cc5c6c(ccc(c7c(C#N)cc(c2c37)C1=O)c64)C(=O)N(CCCCCCCC)C5=O [PDI8-CN2, N,N′-Bis(4-n-octyl)-1,7-dicyanoperylene-3,4:9,10-bis(dicarboximide), reference compound]
−0.106 | 10 (≈ 16.4 mM) | 8 (≈ 13.1 mM) |  |  | CCCC(CC)N1C(=O)c2ccc3c4c(C#N)cc5c6c(ccc(c7c(C#N)cc(c2c37)C1=O)c64)C(=O)N(C(CC)CCC)C5=O (stereo not shown) [PDI1EB-CN2, N,N′-bis(1-ethylbutyl)-1,7-dicyanoperylene-3,4:9,10-bis(dicarboximide)]
−0.120 | 5 (≈ 7.85 mM) |  |  |  | CCCCC(C)CN1C(=O)c2ccc3c4c(C#N)cc5c6c(ccc(c7c(C#N)cc(c2c37)C1=O)c64)C(=O)N(CC(C)CCCC)C5=O (stereo not shown) [PDI2MH-CN2, N,N′-bis(2-methylhexyl)-1,7-dicyanoperylene-3,4:9,10-bis(dicarboximide), reference compound]
−0.130 | 5 (≈ 7.52 mM) | 5 (≈ 7.52 mM) |  |  | CCCCC(CC)CN1C(=O)c2ccc3c4c(C#N)cc5c6c(ccc(c7c(C#N)cc(c2c37)C1=O)c64)C(=O)N(CC(CC)CCCC)C5=O (stereo not shown) [PDI2EH-CN2, N,N′-bis(2-ethylhexyl)-1,7-dicyanoperylene-3,4:9,10-bis(dicarboximide), reference compound]
−0.071 | 40 (≈ 65.7 mM) | 43 (≈ 70.6 mM) | 41.8 (≈ 68.7 mM) | unexpected increase in solubility | CCCCC(C)N1C(=O)c2ccc3c4c(C#N)cc5c6c(ccc(c7c(C#N)cc(c2c37)C1=O)c64)C(=O)N(C(C)CCCC)C5=O (stereo not shown) [PDI1MP-CN2, N,N′-bis(1-methylpentyl)-1,7-dicyanoperylene-3,4:9,10-bis(dicarboximide)]
−0.38 |  |  |  |  | CCC(CC)N1C(=O)c2ccc3c4c(Br)cc5c6c(ccc(c7c(Br)cc(c2c37)C1=O)c64)C(=O)N(C(CC)CC)C5=O [PDI1EPr-Br2, N,N′-bis(1-ethylpropyl)-1,7-dibromoperylene-3,4:9,10-bis(dicarboximide)]
−0.38 |  |  |  |  | CCCCCC(C)N1C(=O)c2ccc3c4c(Br)cc5c6c(ccc(c7c(Br)cc(c2c37)C1=O)c64)C(=O)N(C(C)CCCCC)C5=O (stereo not shown) [PDI1MH-Br2, N,N′-bis(1-methylhexyl)-1,7-dibromoperylene-3,4:9,10-bis(dicarboximide)]
−0.34 |  |  |  |  | CCCC(CC)N1C(=O)c2ccc3c4c(Br)cc5c6c(ccc(c7c(Br)cc(c2c37)C1=O)c64)C(=O)N(C(CC)CCC)C5=O (stereo not shown) [PDI1EB-Br2, N,N′-bis(1-ethylbutyl)-1,7-dibromoperylene-3,4:9,10-bis(dicarboximide)]
−0.094 | 52 (≈ 81.7 mM) | 54 (≈ 84.8 mM) |  | unexpected increase in solubility | CCCCCC(C)N1C(=O)c2ccc3c4c(C#N)cc5c6c(ccc(c7c(C#N)cc(c2c37)C1=O)c64)C(=O)N(C(C)CCCCC)C5=O (stereo not shown) [PDI1MH-CN2, N,N′-bis(1-methylhexyl)-1,7-dicyanoperylene-3,4:9,10-bis(dicarboximide)]
−0.142 | 8 (≈ 11.2 mM) |  |  |  | CC(C)=CCC[C@H](C)CCN1C(=O)c2ccc3c4c(C#N)cc5c6c(ccc(c7c(C#N)cc(c2c37)C1=O)c64)C(=O)N(CC[C@@H](C)CCC=C(C)C)C5=O [PDICitr-CN2, N,N′-bis[(3S)-3,7-dimethyl-6-octenyl]-1,7-dicyanoperylene-3,4:9,10-bis(dicarboximide), reference compound]
−0.40 |  |  |  |  | CCC(C)N1C(=O)c2ccc3c4c(Br)cc5c6c(ccc(c7c(Br)cc(c2c37)C1=O)c64)C(=O)N(C(C)CC)C5=O (stereo not shown) [PDI1MPr-Br2, N,N′-bis(1-methylpropyl)-1,7-dibromoperylene-3,4:9,10-bis(dicarboximide)]
−0.088 | 37 (≈ 60.8 mM) | 30 (≈ 49.3 mM) | 37.1 (≈ 60.9 mM) | unexpected increase in solubility | CC(C)CC(C)N1C(=O)c2ccc3c4c(C#N)cc5c6c(ccc(c7c(C#N)cc(c2c37)C1=O)c64)C(=O)N(C(C)CC(C)C)C5=O (stereo not shown) [PDI1M3MB-CN2, N,N′-bis(1,3-dimethylbutyl)-1,7-dicyanoperylene-3,4:9,10-bis(dicarboximide)]
−0.39 |  |  |  |  | CCCC(C)N1C(=O)c2ccc3c4c(Br)cc5c6c(ccc(c7c(Br)cc(c2c37)C1=O)c64)C(=O)N(C(C)CCC)C5=O (stereo not shown) [PDI1MB-Br2, N,N′-bis(1-methylbutyl)-1,7-dibromoperylene-3,4:9,10-bis(dicarboximide)]

Compound | Ered [1] [V] | Solubility DCB [2] [mg/mL] | Solubility CHCl3 [2] [mg/mL] | Solubility (DCB, 70° C.) [2] [mg/mL] | Solubility compared to similar compounds [2]
CC(C)CC(C)N1C(=O)c2ccc3c4c(Br)cc5c6c(ccc(c7c(Br)cc(c2c37)C1=O)c64)C(=O)N(C(C)CC(C)C)C5=O (stereo not shown) [PDI1M3MB-Br2, N,N′-bis(1,3-dimethylbutyl)-1,7-dibromoperylene-3,4:9,10-bis(dicarboximide)] | −0.39 |  |  |  | 

Reference: patent publication US8404844B2, “Perylene semiconductors and methods of preparation and use thereof” (BASF SE, priority 2008, dated 2013)
